Test results from patent US9993462B2, “Hydantoin derivative-containing pharmaceutical composition” (Chugai Seiyaku Kabushiki Kaisha, priority 2014, dated 2018).

Legend:
TPTX rat = experiment: Calcemic action in the TPTX rat model; assay type: in vivo; conditions: TPTX rats, 30 mg/kg oral
Experimental: Four-week old female Crl:CD(SD) rats were obtained from Charles River Japan (Atsugi Breeding Center), and were acclimated to standard laboratory conditions of 20-26° C. and 35-75% humidity for one week. The rats were given tap water and were fed ad libitum with standard rodent chow (CE-2) (CLEA Japan, Inc.) containing 1.1% calcium, 1.0% phosphoric acid, and 250 IU/100 g of vitamin D3.
TPTX was performed on five-week old rats. Some of the individuals were subjected to sham operation (Sham). Individuals whose serum Ca concentration was less than 8 mg/dL on four days after the operation were selected for use as TPTX rats. On five days after the operation, the rats were assigned to eight TPTX groups and one Sham group (n=5, each group) based on their body weight and serum Ca concentration measured on four days after the operation. The solvent alone was orally administered to the Sham group and the TPTX-Vehicle group at a volume of 10 mL/kg. Each test article was orally administered individually to each TPTX test article group by dissolving it in a solvent at a dose of 30 mg/10 mL/kg. The solvent composition was 10% dimethylsulfoxide (Wako Pure Chemical Industries, Ltd.), 10% Cremophor EL (Sigma-Aldrich Japan LLC), 20% hydroxypropyl-β-cyclodextrin (Nihon Shokuhin Kako Co., Ltd.), glycine (Wako Pure Chemical Industries, Ltd.); and the pH was adjusted to 10. Immediately before administration of each sample, Pre-blood collection was performed, and blood collection was carried out at 2, 6, 10, and 24 hours after administration to measure the serum Ca concentration. Each blood collection was carried out from the jugular vein under isoflurane inhalation anesthesia.
Serum Ca measurement: Serum obtained by centrifugation from the collected blood was measured by using an automatic analyzer TBA-120FR (Toshiba Medical Systems Corporation).
For statistical analysis of the animal studies, data are shown as mean±standard error (SE). Statistical analysis were performed by unpaired test of the SAS Preclinical Package (Ver. 5.00.010720, SAS Institute Japan, Tokyo, Japan).

ovariectomized rats = experiment: Bone mineral density after six weeks of repeated administration to ovariectomized rats; assay type: in vivo, rat; conditions: once a day for six weeks, Compound 7 30 mg/kg oral
Experimental: Female Crl:CD(SD) rats obtained from Charles River Japan, Inc. were acclimated for one week or longer under standard laboratory conditions of 20° C. to 26° C. and 35% to 75% humidity, and then used in experiments. The rats had free access to tap water and a standard rodent diet (CE-2) (Clea Japan Inc.) containing 1.1% calcium, 1.0% phosphoric acid, and 250 IU/100 g vitamin D3.
Twelve-week old rats were subjected to removal of both ovaries by surgery (OVX) or to sham surgery (Sham). After the body weight was determined in the fourth week after surgery, the rats were divided into groups so that the average body weight of each group of six rats would be even. From the subsequent day after group division, each rat was subjected to repeated administration once a day for six weeks. The solvent for oral administration (vehicle) and the solvent for subcutaneous administration (PC buffer) were respectively administered orally and subcutaneously to rats of the Sham-Control group. Vehicle and PC buffer were orally and subcutaneously administered to rats of the OVX-Control group, respectively. To rats of OVX-Compound 7, the above-mentioned Compound 7 dissolved in the vehicle was orally administered at a dose of 30 mg/kg, and PC buffer was administered subcutaneously. To rats of the OVX-hPTH(1-34) group, the vehicle was orally administered, and hPTH(1-34) dissolved in PC buffer was subcutaneously administered at a dose of 0.9 nmol/kg.
The level of AUC (area under the curve for blood concentration vs. time) was the same as when 20 μg of Forteo®, a therapeutic agent clinically used for osteoporosis, is administered to humans when the administration dose for rats was set to 0.9 nmol/kg. The administration doses were 5 mL/kg for oral administration and 1 mL/kg for subcutaneous administration in all groups. The vehicle used was a composition prepared from 10% dimethyl sulfoxide (Wako Pure Chemical Industries, Ltd.), 10% Kolliphor EL (Sigma-Aldrich Japan), and 10% hydroxypropyl-β-cyclodextrin (Nihon Shokuhin Kako Co., Ltd), whose pH was adjusted to 10 using glycine (Wako Pure Chemical Industries, Ltd.) and sodium hydroxide (Wako Pure Chemical Industries, Ltd.). The PC buffer used was a composition prepared from 25 mmol/L phosphate-citrate buffer, 100 mmol/L NaCl, and 0.05% Tween80, adjusted to pH 5.0. […] The bone mineral densities of the lumbar spine and femur were determined using a dual X-ray bone mineral scanner (DCS-600EX, Aloka). The lumbar spine bone mineral density was determined by measuring the second to fourth lumbar vertebrae; and the femur bone mineral density was determined by vertically dividing the femur into ten parts, and measuring the three parts at the distal end of the knees. […]

[1] = tested on: model rabbits with partially removed meniscus; experiment: Model rabbits with partially removed meniscus (osteoarthritis model), lesion area of articular cartilage; assay type: in vivo, rabbit; conditions: continuous administration to the knee joint by osmotic pump, 3.0 or 30 μg/mL, 14 days after surgery
Text: Twelve-week old male NZW rabbits (Oriental Yeast Co., Ltd.) were acclimated for five days, and then under isoflurane anesthesia, the lateral skin of the left knee joint was incised and the lateral collateral ligament and the sesamoid ligament were surgically removed to expose the lateral meniscus. The center of the lateral meniscus was excised at a width of 3 to 4 mm to produce an osteoarthritis model (Kikuchi T et al., Osteoarth Cart 1999; 4(2): 99-110). The tips of the three polyethylene tubes (PE60, Nippon Becton Dickinson Company) connected to three osmotic pumps (2ML1, Durect, Road Cupertino, Calif., US) that were embedded subcutaneously in the left femur were placed into the joint, and the drug solution was continuously administered to the knee joint. Each osmotic pump was filled with any of 1) vehicle control (50% dimethyl sulfoxide/50% physiological saline v/v); 2) Compound 7 at 3.0 μg/mL; or 3) Compound 7 at 30 μg/mL. […] Images of the surface structure of the lower leg bone were taken on a digital microscope (VHX-2000, Keyence Corporation), the area of the Indian ink-positive lesion site and the area of the entire lateral condyle were determined, and the proportion of the lesion site occupying the entire lateral condyle was calculated (FIG. 6).

For `Cc1cc(N2C(=O)NC(=O)C2(C)C)cc(C)c1CCS(=O)(=O)N1CCC2(CC1)N=C(c1ccc(OC(F)(F)F)cc1)NC2=O` [Compound 7, 1-(3,5-dimethyl-4-(2-((4-oxo-2-(4-(trifluoromethoxy)phenyl)-1,3,8-triazaspiro[4.5]deca-1-en-8-yl)sulfonyl)ethyl)phenyl)-5,5-dimethylimidazolidine-2,4-dione], the “achievement of the therapeutic target range of serum Ca concentration of 7.6 to 8.8 mg/dL” value (TPTX rat) was “achieved the therapeutic target range”, the “change of serum Ca concentration from the Pre-value (in words)” value (TPTX rat; up to 24 hours after administration) was “large positive changes from the Pre-value” and the “lumbar spine bone mineral density with respect to the OVX-Control group (in words)” value (ovariectomized rats) was “increasing trend”. For the same molecule, the “percentage of increase in femur bone mineral density with respect to the OVX-Control group” value (ovariectomized rats; hPTH(1-34) 0.9 nmol/kg subcutaneous) was 12% and the “area of the lesion site in the articular cartilage of the lower leg bone” value [1] was “reduce the area of the lesion site in a dose-dependent manner”.
